Results reported in PubChem BioAssay (NCI).
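Each compound was tested at five concentrations against cells in 96-well plates for 48 hours. TGI denotes the concentration required for complete inhibition of growth.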

What was measured:
Test in all cases: DTP human tumour cell line panel, 48 h
SNB-78 CNS = tested on: SNB-78 CNS
OVCAR-4 ovarian = tested on: OVCAR-4 ovarian
SK-MEL-2 melanoma = tested on: SK-MEL-2 melanoma
MOLT-4 leukemia = tested on: MOLT-4 leukemia
SNB-19 CNS = tested on: SNB-19 CNS
SF-539 CNS = tested on: SF-539 CNS
HOP-92 NSCLC = tested on: HOP-92 NSCLC
OVCAR-5 ovarian = tested on: OVCAR-5 ovarian
SK-MEL-28 melanoma = tested on: SK-MEL-28 melanoma
UACC-62 melanoma = tested on: UACC-62 melanoma
NCI-H460 lung = tested on: NCI-H460 lung
CCRF-CEM leukemia = tested on: CCRF-CEM leukemia
BT-549 breast = tested on: BT-549 breast
U251 CNS = tested on: U251 CNS
LOX IMVI melanoma = tested on: LOX IMVI melanoma
HCT-15 colon = tested on: HCT-15 colon
LXFL 529 NSCLC = tested on: LXFL 529 NSCLC
HL-60(TB) leukemia = tested on: HL-60(TB) leukemia
PC-3 prostate = tested on: PC-3 prostate
DLD-1 colon = tested on: DLD-1 colon
DMS 114 small cell lung = tested on: DMS 114 small cell lung
HCC-2998 colon = tested on: HCC-2998 colon
HCT-116 colon = tested on: HCT-116 colon
UO-31 renal = tested on: UO-31 renal
HOP-62 NSCLC = tested on: HOP-62 NSCLC
A498 renal = tested on: A498 renal
SR leukemia = tested on: SR leukemia
A549 NSCLC = tested on: A549 NSCLC
SK-MEL-5 melanoma = tested on: SK-MEL-5 melanoma
IGROV1 ovarian = tested on: IGROV1 ovarian
OVCAR-8 ovarian = tested on: OVCAR-8 ovarian
T-47D breast = tested on: T-47D breast
RPMI-8226 leukemia = tested on: RPMI-8226 leukemia
RXF 393 renal = tested on: RXF 393 renal
SF-268 CNS = tested on: SF-268 CNS
ACHN renal = tested on: ACHN renal
XF 498 CNS = tested on: XF 498 CNS
SK-OV-3 ovarian = tested on: SK-OV-3 ovarian
MDA-MB-435 = tested on: MDA-MB-435
DU-145 prostate = tested on: DU-145 prostate
786-0 renal = tested on: 786-0 renal
NCI-H226 lung = tested on: NCI-H226 lung
SF-295 CNS = tested on: SF-295 CNS
NCI/ADR-RES ovarian = tested on: NCI/ADR-RES ovarian
DMS 273 small cell lung = tested on: DMS 273 small cell lung
MALME-3M melanoma = tested on: MALME-3M melanoma
HOP-18 NSCLC = tested on: HOP-18 NSCLC
OVCAR-3 ovarian = tested on: OVCAR-3 ovarian
CAKI-1 renal = tested on: CAKI-1 renal
M14 melanoma = tested on: M14 melanoma
EKVX NSCLC = tested on: EKVX NSCLC
KM20L2 colon = tested on: KM20L2 colon
M19-MEL melanoma = tested on: M19-MEL melanoma
MDA-MB-231 breast = tested on: MDA-MB-231 breast
HT29 colon = tested on: HT29 colon
NCI-H522 lung = tested on: NCI-H522 lung
UACC-257 melanoma = tested on: UACC-257 melanoma
SN12C renal = tested on: SN12C renal
SW-620 colon = tested on: SW-620 colon
K-562 leukemia = tested on: K-562 leukemia
MDA-N = tested on: MDA-N
TK-10 renal = tested on: TK-10 renal
KM12 colon = tested on: KM12 colon
NCI-H23 lung = tested on: NCI-H23 lung
SNB-75 CNS = tested on: SNB-75 CNS
COLO 205 colon = tested on: COLO 205 colon

## CN(C)CCNc1ccc(CO)c2sc3ccc(O)cc3c(=O)c12
SNB-78 CNS
  TGI: > 45.6 µM
OVCAR-4 ovarian
  TGI: 13.1 µM
SK-MEL-2 melanoma
  TGI: 11.6 µM
MOLT-4 leukemia
  TGI: > 21.7 µM
SNB-19 CNS
  TGI: 11.9 µM
SF-539 CNS
  TGI: 6.9 µM
HOP-92 NSCLC
  TGI: 7.35 µM
OVCAR-5 ovarian
  TGI: 14.6 µM
SK-MEL-28 melanoma
  TGI: 19.1 µM
UACC-62 melanoma
  TGI: 7.75 µM
NCI-H460 lung
  TGI: 2.87 µM
CCRF-CEM leukemia
  TGI: 21.3 µM
BT-549 breast
  TGI: 8.93 µM
U251 CNS
  TGI: 7.46 µM
LOX IMVI melanoma
  TGI: 6.75 µM
HCT-15 colon
  TGI: 14.2 µM
LXFL 529 NSCLC
  TGI: 19 µM
HL-60(TB) leukemia
  TGI: 6.13 µM
PC-3 prostate
  TGI: 5.92 µM
DLD-1 colon
  TGI: 18.6 µM
DMS 114 small cell lung
  TGI: 16.5 µM
HCC-2998 colon
  TGI: 7.4 µM
HCT-116 colon
  TGI: 9.71 µM
UO-31 renal
  TGI: 6.68 µM
HOP-62 NSCLC
  TGI: 4.23 µM
A498 renal
  TGI: 20.4 µM
SR leukemia
  TGI: 0.78 µM
A549 NSCLC
  TGI: 6.77 µM
SK-MEL-5 melanoma
  TGI: 8.37 µM
IGROV1 ovarian
  TGI: 16.4 µM
OVCAR-8 ovarian
  TGI: 8.89 µM
T-47D breast
  TGI: 7.68 µM
RPMI-8226 leukemia
  TGI: 12.8 µM
RXF 393 renal
  TGI: 4.44 µM
SF-268 CNS
  TGI: 8.82 µM
ACHN renal
  TGI: 6.75 µM
XF 498 CNS
  TGI: 19.9 µM
SK-OV-3 ovarian
  TGI: 8.29 µM
MDA-MB-435
  TGI: 4.34 µM
DU-145 prostate
  TGI: 4.05 µM
786-0 renal
  TGI: 9.37 µM
NCI-H226 lung
  TGI: 8.48 µM
SF-295 CNS
  TGI: 12.1 µM
NCI/ADR-RES ovarian
  TGI: 17.2 µM
DMS 273 small cell lung
  TGI: 9.97 µM
MALME-3M melanoma
  TGI: 9.81 µM
HOP-18 NSCLC
  TGI: 29.6 µM
OVCAR-3 ovarian
  TGI: 23.5 µM
CAKI-1 renal
  TGI: > 25.9 µM
M14 melanoma
  TGI: 16.5 µM
EKVX NSCLC
  TGI: 19.1 µM
KM20L2 colon
  TGI: 22.7 µM
M19-MEL melanoma
  TGI: 15.9 µM
MDA-MB-231 breast
  TGI: 4.24 µM
HT29 colon
  TGI: 9.35 µM
NCI-H522 lung
  TGI: 3.49 µM
UACC-257 melanoma
  TGI: 15.7 µM
SN12C renal
  TGI: 15.4 µM
SW-620 colon
  TGI: 10.5 µM
K-562 leukemia
  TGI: > 20.9 µM
MDA-N
  TGI: 3.7 µM
TK-10 renal
  TGI: 32.1 µM
KM12 colon
  TGI: 7.3 µM
NCI-H23 lung
  TGI: 4.14 µM
SNB-75 CNS
  TGI: 9.62 µM
COLO 205 colon
  TGI: 16.8 µM
